Data: ChEMBL document CHEMBL1201862, “PubChem BioAssay data set” (2004)
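48-hour exposure; five concentrations; linearly interpolated endpoints. GI50: concentration for 50% inhibition of growth.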 Active and inactive are the calls of the source. Cut-off read from the data, not from the text of the source: active = GI50 up to about 1.1 µM and inactive = higher.

Key:
Assay in all cases: inhibition of tumour cell growth, NCI panel, 48 h
786-0 = system: 786-0
A549 = system: A549
ACHN = system: ACHN
CAKI-1 = system: CAKI-1
CCRF-CEM = system: CCRF-CEM
COLO 205 = system: COLO 205
DLD-1 = system: DLD-1
DMS-114 = system: DMS-114
DMS-273 = system: DMS-273
EKVX = system: EKVX
HCC 2998 = system: HCC 2998
HCT-116 = system: HCT-116
HCT-15 = system: HCT-15
HL-60 = system: HL-60
HOP-18 = system: HOP-18
HOP-62 = system: HOP-62
HOP-92 = system: HOP-92
HT-29 = system: HT-29
IGROV-1 = system: IGROV-1
K562 = system: K562
KM-20L2 = system: KM-20L2
KM12 = system: KM12
LOX IMVI = system: LOX IMVI
LXFL 529 = system: LXFL 529
M14 = system: M14
M19-MEL = system: M19-MEL
MOLT-4 = system: MOLT-4
Malme-3M = system: Malme-3M
NCI-H226 = system: NCI-H226
NCI-H23 = system: NCI-H23
NCI-H460 = system: NCI-H460
NCI-H522 = system: NCI-H522
OVCAR-3 = system: OVCAR-3
OVCAR-4 = system: OVCAR-4
OVCAR-8 = system: OVCAR-8
RPMI-8226 = system: RPMI-8226
RXF 393 = system: RXF 393
SF-268 = system: SF-268
SF-295 = system: SF-295
SF-539 = system: SF-539
SK-MEL-28 = system: SK-MEL-28
SK-MEL-2 = system: SK-MEL-2
SK-MEL-5 = system: SK-MEL-5
SK-OV-3 = system: SK-OV-3
SN12C = system: SN12C
SNB-19 = system: SNB-19
SNB-75 = system: SNB-75
SNB-78 = system: SNB-78
SR = system: SR
SW-620 = system: SW-620
TK-10 = system: TK-10
U-251 = system: U-251
UACC-62 = system: UACC-62
UO-31 = system: UO-31
XF498 = system: XF498
A498 = system: A498
OVCAR-5 = system: OVCAR-5
UACC-257 = system: UACC-257

In the case of COc1ccc(-c2cc(O)c3cc4c(cc3n2)OCO4)c(OC)c1OC, the GI50 (786-0) is reported as > 100 µM (inactive), the GI50 (A549) is reported as > 100 µM (inactive) and the GI50 (ACHN) is reported as 76.2 µM (inactive). For the same molecule, the GI50 (CAKI-1) was > 100 µM (inactive), the GI50 (CCRF-CEM) was 76.9 µM (inactive) and the GI50 (COLO 205) was 53.1 µM (inactive). The GI50 (DLD-1) was > 100 µM (inactive), the GI50 (DMS-114) was 29.4 µM (inactive) and the GI50 (DMS-273) was 38.2 µM (inactive). The GI50 (EKVX) was > 100 µM (inactive), the GI50 (HCC 2998) was > 100 µM (inactive) and the GI50 (HCT-116) was > 100 µM (inactive). The GI50 (HCT-15) was over 100 µM, the GI50 (HL-60) was 37.3 µM (inactive) and the GI50 (HOP-18) was 96.6 µM (inactive). For the same molecule, the GI50 (HOP-62) was 87.1 µM (inactive), the GI50 (HOP-92) was 70.3 µM (inactive) and the GI50 (HT-29) was > 100 µM (inactive). For the same molecule, the GI50 (IGROV-1) was > 100 µM (inactive), the GI50 (K562) was 43.9 µM (inactive) and the GI50 (KM-20L2) was > 100 µM (inactive). For the same molecule, the GI50 (KM12) was 68.9 µM (inactive), the GI50 (LOX IMVI) was > 100 µM (inactive) and the GI50 (LXFL 529) was > 100 µM (inactive). The GI50 (M14) was 68.1 µM (inactive), the GI50 (M19-MEL) was 95.1 µM (inactive) and the GI50 (MOLT-4) was 62.7 µM (inactive). The GI50 (Malme-3M) was 40.4 µM (inactive), the GI50 (NCI-H226) was > 100 µM (inactive) and the GI50 (NCI-H23) was > 100 µM (inactive). For the same molecule, the GI50 (NCI-H460) was 33.6 µM (inactive), the GI50 (NCI-H522) was 96.2 µM (inactive) and the GI50 (OVCAR-3) was > 100 µM (inactive). The GI50 (OVCAR-4) was > 100 µM (inactive), the GI50 (OVCAR-8) was > 100 µM (inactive) and the GI50 (RPMI-8226) was 82.8 µM (inactive). The GI50 (RXF 393) was > 100 µM (inactive), the GI50 (SF-268) was > 100 µM (inactive) and the GI50 (SF-295) was 76.6 µM (inactive). The GI50 (SF-539) was > 100 µM (inactive), the GI50 (SK-MEL-28) was 96.6 µM (inactive) and the GI50 (SK-MEL-2) was > 100 µM (inactive). The GI50 (SK-MEL-5) was 41.5 µM (inactive), the GI50 (SK-OV-3) was 50.8 µM (inactive) and the GI50 (SN12C) was > 100 µM (inactive). For the same molecule, the GI50 (SNB-19) was > 100 µM (inactive), the GI50 (SNB-75) was 27.7 µM (inactive) and the GI50 (SNB-78) was > 100 µM (inactive). For the same molecule, the GI50 (SR) was 24.4 µM (inactive), the GI50 (SW-620) was 84.9 µM (inactive) and the GI50 (TK-10) was > 100 µM (inactive). For the same molecule, the GI50 (U-251) was > 100 µM (inactive), the GI50 (UACC-62) was 47.6 µM (inactive) and the GI50 (UO-31) was > 100 µM (inactive). For the same molecule, the GI50 (XF498) was 66.5 µM (inactive).
COC1OC(CO)C(O)C(NC(=O)N(C)N=O)C1O (stereo not given) was tested, and the GI50 (786-0) was > 100 µM (inactive), the GI50 (A498) was > 100 µM (inactive) and the GI50 (A549) was > 100 µM (inactive). For the same molecule, the GI50 (ACHN) was > 100 µM (inactive), the GI50 (CAKI-1) was > 100 µM (inactive) and the GI50 (CCRF-CEM) was > 100 µM (inactive). For the same molecule, the GI50 (COLO 205) was > 100 µM (inactive), the GI50 (DLD-1) was > 100 µM (inactive) and the GI50 (DMS-114) was > 100 µM (inactive). The GI50 (DMS-273) was > 100 µM (inactive), the GI50 (EKVX) was > 100 µM (inactive) and the GI50 (HCC 2998) was > 100 µM (inactive). The GI50 (HCT-116) was > 100 µM (inactive), the GI50 (HCT-15) was over 100 µM and the GI50 (HL-60) was > 100 µM (inactive). The GI50 (HOP-18) was > 100 µM (inactive), the GI50 (HOP-92) was > 100 µM (inactive) and the GI50 (HT-29) was > 100 µM (inactive). For the same molecule, the GI50 (IGROV-1) was > 100 µM (inactive), the GI50 (K562) was > 100 µM (inactive) and the GI50 (KM-20L2) was > 100 µM (inactive). The GI50 (KM12) was > 100 µM (inactive), the GI50 (LXFL 529) was > 100 µM (inactive) and the GI50 (M14) was > 100 µM (inactive). For the same molecule, the GI50 (M19-MEL) was > 100 µM (inactive), the GI50 (MOLT-4) was > 100 µM (inactive) and the GI50 (Malme-3M) was > 100 µM (inactive). For the same molecule, the GI50 (NCI-H226) was > 100 µM (inactive), the GI50 (NCI-H23) was > 100 µM (inactive) and the GI50 (NCI-H460) was > 100 µM (inactive). For the same molecule, the GI50 (NCI-H522) was > 100 µM (inactive), the GI50 (OVCAR-3) was > 100 µM (inactive) and the GI50 (OVCAR-4) was > 100 µM (inactive). The GI50 (OVCAR-8) was > 100 µM (inactive), the GI50 (RPMI-8226) was > 100 µM (inactive) and the GI50 (RXF 393) was > 100 µM (inactive). For the same molecule, the GI50 (SF-268) was > 100 µM (inactive), the GI50 (SF-295) was > 100 µM (inactive) and the GI50 (SF-539) was > 100 µM (inactive). The GI50 (SK-MEL-28) was > 100 µM (inactive), the GI50 (SK-MEL-2) was > 100 µM (inactive) and the GI50 (SK-MEL-5) was > 100 µM (inactive). For the same molecule, the GI50 (SK-OV-3) was > 100 µM (inactive), the GI50 (SN12C) was > 100 µM (inactive) and the GI50 (SNB-19) was > 100 µM (inactive). The GI50 (SNB-75) was > 100 µM (inactive), the GI50 (SNB-78) was > 100 µM (inactive) and the GI50 (SR) was > 100 µM (inactive). For the same molecule, the GI50 (SW-620) was > 100 µM (inactive), the GI50 (TK-10) was > 100 µM (inactive) and the GI50 (U-251) was > 100 µM (inactive). The GI50 (UO-31) was > 100 µM (inactive) and the GI50 (XF498) was > 100 µM (inactive).
In the case of Nc1c(-c2nc3ccccc3[nH]2)sc(=S)n1-c1ccc(Cl)cc1, the GI50 (786-0) is reported as 19.9 µM (inactive), the GI50 (A498) is reported as 31 µM (inactive) and the GI50 (A549) is reported as 23.5 µM (inactive). For the same molecule, the GI50 (ACHN) was 17.7 µM (inactive), the GI50 (CAKI-1) was 33 µM (inactive) and the GI50 (CCRF-CEM) was 41.1 µM (inactive). For the same molecule, the GI50 (COLO 205) was 35.3 µM (inactive), the GI50 (DLD-1) was 48.2 µM (inactive) and the GI50 (DMS-114) was 18.6 µM (inactive). The GI50 (DMS-273) was 19.8 µM (inactive), the GI50 (EKVX) was 35.8 µM (inactive) and the GI50 (HCC 2998) was 21.8 µM (inactive). The GI50 (HCT-15) was 25.4 µM, the GI50 (HL-60) was > 100 µM (inactive) and the GI50 (HOP-18) was 20.8 µM (inactive). For the same molecule, the GI50 (HOP-62) was 25.6 µM (inactive), the GI50 (HT-29) was 19.7 µM (inactive) and the GI50 (IGROV-1) was 28.6 µM (inactive). The GI50 (K562) was 32.8 µM (inactive), the GI50 (KM12) was 28.6 µM (inactive) and the GI50 (LOX IMVI) was 26.1 µM (inactive). For the same molecule, the GI50 (M14) was 30.3 µM (inactive), the GI50 (M19-MEL) was 32.4 µM (inactive) and the GI50 (MOLT-4) was 31.1 µM (inactive). The GI50 (Malme-3M) was 36.2 µM (inactive), the GI50 (NCI-H226) was 26.5 µM (inactive) and the GI50 (NCI-H23) was 36.6 µM (inactive). The GI50 (NCI-H522) was 22.4 µM (inactive), the GI50 (OVCAR-3) was 18.5 µM (inactive) and the GI50 (OVCAR-4) was 20 µM (inactive). For the same molecule, the GI50 (OVCAR-5) was > 100 µM (inactive), the GI50 (OVCAR-8) was 23.8 µM (inactive) and the GI50 (RPMI-8226) was 28.1 µM (inactive). For the same molecule, the GI50 (RXF 393) was 23.8 µM (inactive), the GI50 (SF-268) was 25.3 µM (inactive) and the GI50 (SF-295) was 22.9 µM (inactive). The GI50 (SF-539) was 20.1 µM (inactive), the GI50 (SK-MEL-28) was 33.7 µM (inactive) and the GI50 (SK-MEL-2) was 25.6 µM (inactive). The GI50 (SK-MEL-5) was 26 µM (inactive), the GI50 (SK-OV-3) was 34.3 µM (inactive) and the GI50 (SN12C) was 21.4 µM (inactive). For the same molecule, the GI50 (SNB-19) was 25.7 µM (inactive), the GI50 (SNB-75) was 27.7 µM (inactive) and the GI50 (SNB-78) was 30.4 µM (inactive). For the same molecule, the GI50 (SW-620) was 39.5 µM (inactive), the GI50 (TK-10) was 30 µM (inactive) and the GI50 (U-251) was 23.7 µM (inactive). For the same molecule, the GI50 (UACC-257) was 25.5 µM (inactive), the GI50 (UACC-62) was 16.1 µM (inactive) and the GI50 (UO-31) was 29.6 µM (inactive). For the same molecule, the GI50 (XF498) was 35.7 µM (inactive).
